Laboratory results published in ChEMBL document CHEMBL1152742, “Morpholine-based RGD-cyclopentapeptides as alphavbeta3/alphavbeta5 integrin ligands: role of configuration towards receptor binding affinity” (Bioorg Med Chem, 2009).

Legend:
[1] = molecular target: Integrin alpha-V/beta-5 (Homo sapiens); experiment: Displacement of [125I]echistatin from integrin alphaVbeta5 receptor in human placenta by microplate scintillation counter
[2] = molecular target: Integrin alpha-V/beta-3 (Homo sapiens, UniProt P05106+P06756)
Sequence of Integrin alpha-V/beta-3 (P05106 27-788 limits assumed): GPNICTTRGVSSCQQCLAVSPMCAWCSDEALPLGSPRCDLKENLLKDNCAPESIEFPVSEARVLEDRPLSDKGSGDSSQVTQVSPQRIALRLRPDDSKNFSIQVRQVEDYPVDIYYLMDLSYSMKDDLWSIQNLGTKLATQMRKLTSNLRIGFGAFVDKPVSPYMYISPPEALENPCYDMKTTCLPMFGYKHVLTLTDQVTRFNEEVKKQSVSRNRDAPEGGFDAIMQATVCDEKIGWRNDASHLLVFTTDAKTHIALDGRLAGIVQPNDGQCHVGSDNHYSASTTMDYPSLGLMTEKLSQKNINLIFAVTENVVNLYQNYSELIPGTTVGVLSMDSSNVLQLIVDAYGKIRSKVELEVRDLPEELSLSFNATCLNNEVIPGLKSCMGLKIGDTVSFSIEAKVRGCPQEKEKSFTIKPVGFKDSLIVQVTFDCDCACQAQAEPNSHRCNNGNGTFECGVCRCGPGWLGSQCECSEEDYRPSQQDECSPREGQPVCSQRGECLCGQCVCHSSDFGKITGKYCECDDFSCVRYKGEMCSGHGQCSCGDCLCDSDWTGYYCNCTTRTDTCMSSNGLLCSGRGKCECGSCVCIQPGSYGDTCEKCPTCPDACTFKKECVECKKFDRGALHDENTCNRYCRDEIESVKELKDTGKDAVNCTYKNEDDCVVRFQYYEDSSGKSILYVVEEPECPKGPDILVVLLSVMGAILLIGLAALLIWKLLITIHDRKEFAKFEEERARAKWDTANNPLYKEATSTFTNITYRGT
Sequence of Integrin alpha-V/beta-3 (P06756 31-889 partner limits assumed): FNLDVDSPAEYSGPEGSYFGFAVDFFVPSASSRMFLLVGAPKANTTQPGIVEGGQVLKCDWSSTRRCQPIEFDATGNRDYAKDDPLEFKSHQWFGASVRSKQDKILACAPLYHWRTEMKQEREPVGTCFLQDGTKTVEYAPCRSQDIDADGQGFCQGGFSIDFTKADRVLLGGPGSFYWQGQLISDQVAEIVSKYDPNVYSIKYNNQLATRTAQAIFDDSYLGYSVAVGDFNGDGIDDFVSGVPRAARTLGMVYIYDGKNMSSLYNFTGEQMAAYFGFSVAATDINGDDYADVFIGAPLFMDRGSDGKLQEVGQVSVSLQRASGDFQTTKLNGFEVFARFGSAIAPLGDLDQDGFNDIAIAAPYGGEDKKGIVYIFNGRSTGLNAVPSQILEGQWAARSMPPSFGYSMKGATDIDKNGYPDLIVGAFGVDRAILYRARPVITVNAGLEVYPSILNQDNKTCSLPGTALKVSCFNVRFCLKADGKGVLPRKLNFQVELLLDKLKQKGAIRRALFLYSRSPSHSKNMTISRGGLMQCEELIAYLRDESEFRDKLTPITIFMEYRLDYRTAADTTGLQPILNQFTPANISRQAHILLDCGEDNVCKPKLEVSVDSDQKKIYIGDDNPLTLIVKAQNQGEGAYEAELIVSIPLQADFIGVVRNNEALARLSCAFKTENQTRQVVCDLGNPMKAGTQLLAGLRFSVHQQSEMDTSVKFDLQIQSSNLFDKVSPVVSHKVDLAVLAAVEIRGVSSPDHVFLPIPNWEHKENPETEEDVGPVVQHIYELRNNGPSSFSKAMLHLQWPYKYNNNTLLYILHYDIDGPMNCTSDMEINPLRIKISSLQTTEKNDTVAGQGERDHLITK
Sequence of Integrin alpha-V/beta-3 (P06756 891-1048 partner limits assumed): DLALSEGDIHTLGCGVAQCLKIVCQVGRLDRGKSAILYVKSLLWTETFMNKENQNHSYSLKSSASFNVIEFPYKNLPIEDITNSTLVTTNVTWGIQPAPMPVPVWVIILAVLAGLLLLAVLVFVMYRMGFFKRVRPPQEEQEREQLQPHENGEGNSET
Description: Displacement of [125I]echistatin from integrin alphaVbeta3 receptor in human placenta by microplate scintillation counter

IC50 [1]: 0.9 nM
IC50 [2]: 5.64 nM
SMILES: NC(N)=NCCC[C@@H]1NC(=O)CNC(=O)[C@H](CC(=O)O)N[C@@H]2CCC[C@@H]3CC[C@@H](C1=O)N3C2=O
